Measurements published in ChEMBL document CHEMBL3885881, “DrugMatrix”.

Species on record: Rattus norvegicus
Assay: DrugMatrix - Regimen: Daily Repeat
Format: toxicity, organism-based, Sprague-Dawley
Design: regimen Daily Repeat, gender Male, age 6-8 weeks
Settings: in vivo, po, route oral GAVAGE, vehicle .5 % CMC; for ABSOLUTE BASOPHIL / ABSOLUTE EOSINOPHIL / ABSOLUTE LYMPHOCYTE / ABSOLUTE SEGMENTED NEUTROPHIL / BASOPHIL / EOSINOPHIL / ERYTHROCYTE COUNT / HEMATOCRIT / HEMOGLOBIN / LEUKOCYTE COUNT / LYMPHOCYTE / MEAN CORPUSCULAR HEMOGLOBIN / MEAN CORPUSCULAR HEMOGLOBIN CONCENTRATION / MEAN CORPUSCULAR VOLUME / MONOCYTE / NEUTROPHIL / NUCLEATED RED BLOOD CELLS / PLATELET COUNT: tissue Blood; for ALANINE AMINOTRANSFERASE / ASPARTATE AMINOTRANSFERASE / BLOOD UREA NITROGEN / CARBON DIOXIDE / CHLORIDE / CHOLESTEROL / CREATINE PHOSPHOKINASE / CREATININE / GLUCOSE / LACTATE DEHYDROGENASE / LIPASE / PHOSPHORUS / POTASSIUM / SODIUM / TOTAL BILIRUBIN / TOTAL PROTEIN / URIC ACID: tissue Plasma
[1] = 30 mg/kg, 72 h, dose level Low, time 3 day
[2] = 30 mg/kg, 120 h, dose level Low, time 5 day
[3] = 490 mg/kg, 72 h, dose level High, time 3 day
[4] = 490 mg/kg, 120 h, dose level High, time 5 day

## NC(=O)N1c2ccccc2C=Cc2ccccc21 [CARBAMAZEPINE]
[1]
  ABSOLUTE BASOPHIL: 0 CELLS/uL
  ABSOLUTE EOSINOPHIL: 182 CELLS/uL
  ABSOLUTE LYMPHOCYTE: 15035.33 CELLS/uL
  ABSOLUTE SEGMENTED NEUTROPHIL: 1745.67 CELLS/uL
  BASOPHIL: 0%
  EOSINOPHIL: 1%
  ERYTHROCYTE COUNT: 5.25 x10E6/uL
  HEMATOCRIT: 33.47%
  HEMOGLOBIN: 12.6 G/DL
  LEUKOCYTE COUNT: 17.3 x10E3/uL
  LYMPHOCYTE: 86.67%
  MEAN CORPUSCULAR HEMOGLOBIN: 24.03 pg
  MEAN CORPUSCULAR HEMOGLOBIN CONCENTRATION: 37.67 G/DL
  MEAN CORPUSCULAR VOLUME: 63.8 fL
  MONOCYTE: 2%
  NEUTROPHIL: 10.33%
  NUCLEATED RED BLOOD CELLS: 0 /100WBC
  PLATELET COUNT: 1486.67 x10E3/uL
  ALANINE AMINOTRANSFERASE: 52 u/L
  ASPARTATE AMINOTRANSFERASE: 78.33 u/L
  BLOOD UREA NITROGEN: 16.33 mg/dL
  CARBON DIOXIDE: 25.67 mmol/L
  CHLORIDE: 101.67 MEQ/L
  CHOLESTEROL: 69.67 mg/dL
  CREATINE PHOSPHOKINASE: 157.33 u/L
  CREATININE: 0.2 mg/dL
  GLUCOSE: 143.33 mg/dL
  LACTATE DEHYDROGENASE: 208 u/L
  LIPASE: 9 u/L
  PHOSPHORUS: 11.33 mg/dL
  POTASSIUM: 6.9 MEQ/L
  SODIUM: 145 MEQ/L
  TOTAL BILIRUBIN: 0.2 mg/dL
  TOTAL PROTEIN: 5.53 G/DL
  URIC ACID: 1.57 mg/dL
[2]
  ABSOLUTE BASOPHIL: 0 CELLS/uL
  ABSOLUTE EOSINOPHIL: 0 CELLS/uL
  ABSOLUTE LYMPHOCYTE: 16159 CELLS/uL
  ABSOLUTE SEGMENTED NEUTROPHIL: 1742.33 CELLS/uL
  BASOPHIL: 0%
  EOSINOPHIL: 0%
  ERYTHROCYTE COUNT: 5.72 x10E6/uL
  HEMATOCRIT: 35.57%
  HEMOGLOBIN: 13.07 G/DL
  LEUKOCYTE COUNT: 18.27 x10E3/uL
  LYMPHOCYTE: 88.33%
  MEAN CORPUSCULAR HEMOGLOBIN: 22.87 pg
  MEAN CORPUSCULAR HEMOGLOBIN CONCENTRATION: 36.73 G/DL
  MEAN CORPUSCULAR VOLUME: 62.2 fL
  MONOCYTE: 2%
  NEUTROPHIL: 9.67%
  NUCLEATED RED BLOOD CELLS: 0 /100WBC
  PLATELET COUNT: 1400 x10E3/uL
  ALANINE AMINOTRANSFERASE: 40 u/L
  ASPARTATE AMINOTRANSFERASE: 84 u/L
  BLOOD UREA NITROGEN: 19.67 mg/dL
  CARBON DIOXIDE: 25.33 mmol/L
  CHLORIDE: 106.67 MEQ/L
  CHOLESTEROL: 60 mg/dL
  CREATINE PHOSPHOKINASE: 371 u/L
  CREATININE: 0.18 mg/dL
  GLUCOSE: 138.67 mg/dL
  LACTATE DEHYDROGENASE: 600.67 u/L
  LIPASE: 8.67 u/L
  PHOSPHORUS: 11.47 mg/dL
  POTASSIUM: 6.31 MEQ/L
  SODIUM: 144.97 MEQ/L
  TOTAL BILIRUBIN: 0.17 mg/dL
  TOTAL PROTEIN: 6.17 G/DL
  URIC ACID: 1.2 mg/dL
[3]
  ABSOLUTE BASOPHIL: 0 CELLS/uL
  ABSOLUTE EOSINOPHIL: 197 CELLS/uL
  ABSOLUTE LYMPHOCYTE: 13021 CELLS/uL
  ABSOLUTE SEGMENTED NEUTROPHIL: 740.67 CELLS/uL
  BASOPHIL: 0%
  EOSINOPHIL: 1%
  ERYTHROCYTE COUNT: 6.01 x10E6/uL
  HEMATOCRIT: 37.5%
  HEMOGLOBIN: 14.23 G/DL
  LEUKOCYTE COUNT: 14.27 x10E3/uL
  LYMPHOCYTE: 91.33%
  MEAN CORPUSCULAR HEMOGLOBIN: 23.77 pg
  MEAN CORPUSCULAR HEMOGLOBIN CONCENTRATION: 37.97 G/DL
  MEAN CORPUSCULAR VOLUME: 62.57 fL
  MONOCYTE: 2%
  NEUTROPHIL: 5.67%
  NUCLEATED RED BLOOD CELLS: 0 /100WBC
  PLATELET COUNT: 1370 x10E3/uL
  ALANINE AMINOTRANSFERASE: 67 u/L
  ASPARTATE AMINOTRANSFERASE: 98.33 u/L
  BLOOD UREA NITROGEN: 20.33 mg/dL
  CARBON DIOXIDE: 23.67 mmol/L
  CHLORIDE: 100.67 MEQ/L
  CHOLESTEROL: 62.67 mg/dL
  CREATINE PHOSPHOKINASE: 423.33 u/L
  CREATININE: 0.18 mg/dL
  GLUCOSE: 127 mg/dL
  LACTATE DEHYDROGENASE: 617.67 u/L
  LIPASE: 9.33 u/L
  PHOSPHORUS: 11.33 mg/dL
  POTASSIUM: 6.92 MEQ/L
  SODIUM: 141.13 MEQ/L
  TOTAL BILIRUBIN: 0.17 mg/dL
  TOTAL PROTEIN: 5.83 G/DL
  URIC ACID: 1.87 mg/dL
[4]
  ABSOLUTE BASOPHIL: 0 CELLS/uL
  ABSOLUTE EOSINOPHIL: 174 CELLS/uL
  ABSOLUTE LYMPHOCYTE: 14815.33 CELLS/uL
  ABSOLUTE SEGMENTED NEUTROPHIL: 1394.67 CELLS/uL
  BASOPHIL: 0%
  EOSINOPHIL: 1%
  ERYTHROCYTE COUNT: 6.46 x10E6/uL
  HEMATOCRIT: 39.9%
  HEMOGLOBIN: 15.17 G/DL
  LEUKOCYTE COUNT: 17.07 x10E3/uL
  LYMPHOCYTE: 86.67%
  MEAN CORPUSCULAR HEMOGLOBIN: 23.47 pg
  MEAN CORPUSCULAR HEMOGLOBIN CONCENTRATION: 38.03 G/DL
  MEAN CORPUSCULAR VOLUME: 61.8 fL
  MONOCYTE: 4%
  NEUTROPHIL: 8.33%
  NUCLEATED RED BLOOD CELLS: 0.67 /100WBC
  PLATELET COUNT: 1286 x10E3/uL
  ALANINE AMINOTRANSFERASE: 89 u/L
  ASPARTATE AMINOTRANSFERASE: 125 u/L
  BLOOD UREA NITROGEN: 18.67 mg/dL
  CARBON DIOXIDE: 23.67 mmol/L
  CHLORIDE: 105 MEQ/L
  CHOLESTEROL: 67.33 mg/dL
  CREATINE PHOSPHOKINASE: 770 u/L
  CREATININE: 0.14 mg/dL
  GLUCOSE: 120 mg/dL
  LACTATE DEHYDROGENASE: 265.67 u/L
  LIPASE: 9.5 u/L
  PHOSPHORUS: 12.47 mg/dL
  POTASSIUM: 6.33 MEQ/L
  SODIUM: 149.25 MEQ/L
  TOTAL BILIRUBIN: 0.2 mg/dL
  TOTAL PROTEIN: 6.23 G/DL
  URIC ACID: 2.13 mg/dL
